# Where “and” joins values, the source holds several entries; their conditions need not be identical. Equal values may be shown once. Read-outs that look alike come from different tables or passages of the source.
# What was measured:
# Assay in all cases: Kinase inhibitor library screening, PrestoBlue cell viability, 1 or 10 μM, 72 h
# [1] = test system: A375 cells (parental)
# [2] = test system: A375-XP cells (Vemurafenib-resistant)
# [3] = test system: IGR37-XP cells (Vemurafenib-resistant)
# [4] = test system: 501Mel-GP cells (Dabrafenib-resistant)
# [5] = test system: IGR37-GP cells (Dabrafenib-resistant)
# [6] = test system: A375-GP cells (Dabrafenib-resistant)
# [7] = test system: 501Mel cells (parental)
# Outline: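 PrestoBlue viability readout after 72 h exposure to each inhibitor at 1 or 10 μM, reported relative to untreated cells as % viability. Lines tested: sensitive parental plus derivatives resistant to Vemurafenib (XP) or Dabrafenib (GP), each run at least in duplicate.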
# [8] = test system: IGR37 cells (parental)
# [9] = test system: 501Mel-XP cells (Vemurafenib-resistant)
smiles,measurement,setting,value
Cc1csc(-c2nnc(Nc3ccc(Oc4ncccc4-c4ccnc(N)n4)cc3)c3ccccc23)c1 [AMG 900],cell viability (kinase inhibitor library screening),"[1]; A375 Parental, 10μΜ, 72 h",30.4%
same,cell viability (kinase inhibitor library screening),"[1]; A375 Parental, 1μΜ, 72 h",46.4%
same,cell viability (kinase inhibitor library screening),"[2]; A375 XP, 1μΜ, 72 h",52.6%
same,cell viability (kinase inhibitor library screening),"[2]; A375 XP, 10μΜ, 72 h",47.5%
same,cell viability (kinase inhibitor library screening),"[3]; IGR37 XP, 1μΜ, 72 h",100.0%
same,cell viability (kinase inhibitor library screening),"[3]; IGR37 XP, 10μΜ, 72 h",66.5%
same,cell viability (kinase inhibitor library screening),"[4]; 501Mel GP, 1μΜ, 72 h",90.4%
same,cell viability (kinase inhibitor library screening),"[4]; 501Mel GP, 10μΜ, 72 h",60.6%
same,cell viability (kinase inhibitor library screening),"[5]; IGR37 GP, 10μΜ, 72 h",79.9%
same,cell viability (kinase inhibitor library screening),"[6]; A375 GP, 1μΜ, 72 h",44.4%
same,cell viability (kinase inhibitor library screening),"[6]; A375 GP, 10μΜ, 72 h",34.7%
same,cell viability (kinase inhibitor library screening),"[7]; 501Mel Parental, 1μΜ, 72 h",87.5%
same,cell viability (kinase inhibitor library screening),"[7]; 501Mel Parental, 10μΜ, 72 h",70.0%
same,cell viability (kinase inhibitor library screening),"[8]; IGR37 Parental, 1μΜ, 72 h",94.6%
same,cell viability (kinase inhibitor library screening),"[8]; IGR37 Parental, 10μΜ, 72 h",78.1%
same,cell viability (kinase inhibitor library screening),"[9]; 501Mel XP, 1μΜ, 72 h",77.2%
same,cell viability (kinase inhibitor library screening),"[9]; 501Mel XP, 10μΜ, 72 h",59.1%
CCn1nnc2c(N3CCOCC3)nc(-c3ccc(NC(=O)Nc4ccc(C(=O)N5CCN(C)CC5)cc4)cc3)nc21 [PKI-402],"Cell viability in kinase inhibitor library screening, A375 Parental, 10μΜ","[1]; A375 Parental, 10μΜ, 72 h",12.7
same,"Cell viability in kinase inhibitor library screening, A375 Parental, 1μΜ","[1]; A375 Parental, 1μΜ, 72 h",21.3
same,"Cell viability in kinase inhibitor library screening, A375 XP, 1μΜ","[2]; A375 XP, 1μΜ, 72 h",20.0
same,"Cell viability in kinase inhibitor library screening, A375 XP, 10μΜ","[2]; A375 XP, 10μΜ, 72 h",8.5
same,"Cell viability in kinase inhibitor library screening, IGR37 XP, 10μΜ","[3]; IGR37 XP, 10μΜ, 72 h",1.9%
same,"Cell viability in kinase inhibitor library screening, IGR37 XP, 1μΜ","[3]; IGR37 XP, 1μΜ, 72 h, in %",25.5
same,"Cell viability in kinase inhibitor library screening, 501Mel GP, 1μΜ","[4]; 501Mel GP, 1μΜ, 72 h, in %",21.4
same,"Cell viability in kinase inhibitor library screening, 501Mel GP, 10μΜ","[4]; 501Mel GP, 10μΜ, 72 h, in %",0.548
same,"Cell viability in kinase inhibitor library screening, IGR37 GP, 10μΜ","[5]; IGR37 GP, 10μΜ, 72 h",3.4%
same,"Cell viability in kinase inhibitor library screening, IGR37 GP, 1μΜ","[5]; IGR37 GP, 1μΜ, 72 h, in %",66.1
same,"Cell viability in kinase inhibitor library screening, A375 GP, 1μΜ","[6]; A375 GP, 1μΜ, 72 h",23.7
same,"Cell viability in kinase inhibitor library screening, A375 GP, 10μΜ","[6]; A375 GP, 10μΜ, 72 h",9.7
same,"Cell viability in kinase inhibitor library screening, 501Mel Parental, 1μΜ","[7]; 501Mel Parental, 1μΜ, 72 h, in %",15.4
same,"Cell viability in kinase inhibitor library screening, 501Mel Parental, 10μΜ","[7]; 501Mel Parental, 10μΜ, 72 h, in %",0.476
same,"Cell viability in kinase inhibitor library screening, IGR37 Parental, 1μΜ","[8]; IGR37 Parental, 1μΜ, 72 h, in %",35.8
same,"Cell viability in kinase inhibitor library screening, IGR37 Parental, 10μΜ","[8]; IGR37 Parental, 10μΜ, 72 h, in %",2.7
same,"Cell viability in kinase inhibitor library screening, 501Mel XP, 1μΜ","[9]; 501Mel XP, 1μΜ, 72 h, in %",15.3
same,"Cell viability in kinase inhibitor library screening, 501Mel XP, 10μΜ","[9]; 501Mel XP, 10μΜ, 72 h, in %",-0.1
"CC[C@H](CO)Nc1nc(NCc2ccccc2)c2ncn(C(C)C)c2n1 [Roscovitine (Seliciclib, CYC202)]",cell viability (kinase inhibitor library screening),[1],90.5%
same,cell viability (kinase inhibitor library screening),[2],109.6% and 86.5%
same,cell viability (kinase inhibitor library screening),[3],96.5% and 59.2%
same,cell viability (kinase inhibitor library screening),[4],85.2%
same,cell viability (kinase inhibitor library screening),[5],93.8% and 90.7%
same,cell viability (kinase inhibitor library screening),[6],109.1% and 86.5%
same,cell viability (kinase inhibitor library screening),[7],95.0% and 93.4%
same,cell viability (kinase inhibitor library screening),[8],85.4% and 104.3%
same,cell viability (kinase inhibitor library screening),[9],93.6% and 61.7%

# — paper PMC6364417, “Kinase inhibitor library screening identifies synergistic drug combinations effective in sensitive and resistant melanoma cells” (Journal of Experimental & Clinical Cancer Research : CR, 2019)
